# Legend:
# [1] = biological target: Prostaglandin G/H synthase 1 (Homo sapiens, UniProt P23219)
# Acetylcholinesterase [2] = biological target: Acetylcholinesterase (Electrophorus electricus, UniProt O42275); assay: Inhibition of Electric eel AChE using acetylthiocholine iodide as substrate pre-incubated for 10 mins followed by substrate addition and measured after 15 mins by DTNB reagent based Ellman's method
# Cholinesterase [3] = biological target: Cholinesterase (Homo sapiens, UniProt P06276); assay: Inhibition of BChE (unknown origin)
# Chain of Cholinesterase (Homo sapiens, UniProt P06276) (P06276 whole entry): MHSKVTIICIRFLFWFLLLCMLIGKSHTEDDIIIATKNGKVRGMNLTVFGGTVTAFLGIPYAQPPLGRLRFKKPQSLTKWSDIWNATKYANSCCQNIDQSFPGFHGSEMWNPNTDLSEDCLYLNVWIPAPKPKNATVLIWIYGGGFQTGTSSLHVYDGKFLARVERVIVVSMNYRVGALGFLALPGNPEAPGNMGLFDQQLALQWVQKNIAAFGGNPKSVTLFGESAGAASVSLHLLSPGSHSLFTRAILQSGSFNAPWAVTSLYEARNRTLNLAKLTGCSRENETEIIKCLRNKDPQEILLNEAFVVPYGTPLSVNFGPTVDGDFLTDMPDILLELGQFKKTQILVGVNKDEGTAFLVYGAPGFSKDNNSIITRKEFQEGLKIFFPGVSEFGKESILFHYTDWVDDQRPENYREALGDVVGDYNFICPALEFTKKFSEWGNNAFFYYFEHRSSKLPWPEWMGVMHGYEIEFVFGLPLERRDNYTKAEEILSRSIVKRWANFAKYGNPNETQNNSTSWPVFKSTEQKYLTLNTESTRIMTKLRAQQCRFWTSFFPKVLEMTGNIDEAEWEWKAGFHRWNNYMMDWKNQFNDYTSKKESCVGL
# [4] = biological target: T1, Amine oxidase [flavin-containing] B (Homo sapiens, UniProt P27338); conditions: read-out: INH
# T1 sequence (P27338 whole entry): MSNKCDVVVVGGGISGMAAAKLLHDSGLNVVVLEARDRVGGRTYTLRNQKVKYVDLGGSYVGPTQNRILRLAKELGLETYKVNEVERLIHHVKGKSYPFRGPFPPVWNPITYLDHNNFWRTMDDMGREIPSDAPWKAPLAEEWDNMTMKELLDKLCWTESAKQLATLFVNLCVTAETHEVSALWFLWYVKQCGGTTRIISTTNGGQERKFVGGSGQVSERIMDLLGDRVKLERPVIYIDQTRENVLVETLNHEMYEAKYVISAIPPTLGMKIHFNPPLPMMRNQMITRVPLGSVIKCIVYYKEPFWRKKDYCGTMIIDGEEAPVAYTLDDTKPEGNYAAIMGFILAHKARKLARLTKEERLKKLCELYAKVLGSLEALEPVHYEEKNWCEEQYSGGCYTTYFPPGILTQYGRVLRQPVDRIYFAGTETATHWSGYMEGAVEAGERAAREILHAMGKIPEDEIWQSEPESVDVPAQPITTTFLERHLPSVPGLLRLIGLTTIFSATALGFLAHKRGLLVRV
# Description: Inhibition of MAO-B (unknown origin) at 100 uM relative to control
# Cholinesterase [5] = biological target: Cholinesterase (Equus caballus, UniProt P81908); assay: Inhibition of equine serum BuChE using butyrylthiocholine iodide as substrate pre-incubated for 10 mins followed by substrate addition and measured after 15 mins by DTNB reagent based Ellman's method
# Chain of Cholinesterase (Equus caballus, UniProt P81908) (P81908 whole entry): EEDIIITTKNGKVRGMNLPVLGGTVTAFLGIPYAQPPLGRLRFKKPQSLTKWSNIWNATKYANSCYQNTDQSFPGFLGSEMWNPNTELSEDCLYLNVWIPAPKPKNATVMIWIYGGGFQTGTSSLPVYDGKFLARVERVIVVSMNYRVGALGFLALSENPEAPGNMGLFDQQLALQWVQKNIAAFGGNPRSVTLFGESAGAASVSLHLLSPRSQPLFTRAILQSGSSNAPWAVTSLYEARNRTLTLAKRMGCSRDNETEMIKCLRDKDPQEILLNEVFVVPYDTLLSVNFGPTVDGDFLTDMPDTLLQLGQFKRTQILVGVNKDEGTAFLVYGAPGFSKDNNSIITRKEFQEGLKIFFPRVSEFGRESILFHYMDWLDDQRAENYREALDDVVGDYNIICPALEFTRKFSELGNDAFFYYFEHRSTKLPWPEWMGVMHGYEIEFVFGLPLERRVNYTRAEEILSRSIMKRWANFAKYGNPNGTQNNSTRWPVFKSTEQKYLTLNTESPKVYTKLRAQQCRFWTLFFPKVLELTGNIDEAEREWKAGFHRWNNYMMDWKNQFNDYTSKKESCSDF
# Beta-secretase 1 = Beta-secretase 1 (Homo sapiens, UniProt P56817); assay: Inhibition of BACE-1 (unknown origin) 667-676- (2, 4-dinitrophenyl) Lys-Arg-Arg amide trifluoroacetate as substrate preincubated for 15 mins followed by substrate addition and measured after 2 hrs by fluorescence spectrometric analysis
# Chain of Beta-secretase 1 (P56817 whole entry): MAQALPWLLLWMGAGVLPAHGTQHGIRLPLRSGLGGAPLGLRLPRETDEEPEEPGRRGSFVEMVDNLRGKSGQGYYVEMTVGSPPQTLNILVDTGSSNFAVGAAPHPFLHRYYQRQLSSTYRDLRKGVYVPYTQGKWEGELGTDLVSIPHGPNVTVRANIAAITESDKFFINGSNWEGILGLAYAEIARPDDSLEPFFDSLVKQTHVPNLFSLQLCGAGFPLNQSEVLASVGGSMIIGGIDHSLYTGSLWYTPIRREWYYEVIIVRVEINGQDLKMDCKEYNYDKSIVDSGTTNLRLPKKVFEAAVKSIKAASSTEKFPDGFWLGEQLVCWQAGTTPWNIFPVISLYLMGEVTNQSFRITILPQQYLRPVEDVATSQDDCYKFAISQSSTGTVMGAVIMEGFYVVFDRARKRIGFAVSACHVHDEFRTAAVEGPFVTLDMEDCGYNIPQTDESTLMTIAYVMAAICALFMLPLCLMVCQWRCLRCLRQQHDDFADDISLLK
# in vitro = conditions: PAMPA, pH 7.4
# Description: Permeability of compound in PBS at pH 7.4 incubated for 20 hrs by PAMPA-BBB assay
# [6] = Neurotoxicity against human SH-SY5Y cells assessed as reduction in cell viability upto 50 uM incubated for 24 hrs by MTT assay; assay type: toxicity, cell-based
# [7] = Lipophilicity, logP of compound; assay type: physicochemical; conditions: octanol/water
# Acetylcholinesterase [8] = biological target: Acetylcholinesterase (Homo sapiens, UniProt P22303); assay: Inhibition of AChE (unknown origin) using acetylthiocholine iodide as substrate pre-incubated for 30 mins followed by substrate addition and measured after 30 mins by DTNB reagent based Ellman's method
# Chain of Acetylcholinesterase (Homo sapiens, UniProt P22303) (P22303 whole entry): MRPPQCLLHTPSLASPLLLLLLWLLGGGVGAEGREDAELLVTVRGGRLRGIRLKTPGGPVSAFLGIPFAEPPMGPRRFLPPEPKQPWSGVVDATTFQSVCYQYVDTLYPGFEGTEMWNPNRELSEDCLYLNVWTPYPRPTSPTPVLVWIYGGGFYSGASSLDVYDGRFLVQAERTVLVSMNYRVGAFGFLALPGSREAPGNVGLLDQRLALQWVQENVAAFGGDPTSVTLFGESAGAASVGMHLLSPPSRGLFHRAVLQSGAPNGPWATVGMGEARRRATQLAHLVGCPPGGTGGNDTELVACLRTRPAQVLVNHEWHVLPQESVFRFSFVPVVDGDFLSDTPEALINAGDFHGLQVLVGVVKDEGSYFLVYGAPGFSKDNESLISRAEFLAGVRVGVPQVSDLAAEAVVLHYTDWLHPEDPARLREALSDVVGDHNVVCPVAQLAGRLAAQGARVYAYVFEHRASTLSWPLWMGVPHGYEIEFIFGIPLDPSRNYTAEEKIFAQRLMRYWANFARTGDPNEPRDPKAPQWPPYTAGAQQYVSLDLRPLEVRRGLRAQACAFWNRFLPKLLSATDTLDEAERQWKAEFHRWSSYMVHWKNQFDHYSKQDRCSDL
# [9] = biological target: T1, Amine oxidase [flavin-containing] B; assay: Inhibition of MAO-B (unknown origin)
# [10] = biological target: T2, Amine oxidase [flavin-containing] A (Homo sapiens, UniProt P21397); assay: Inhibition of human MAO-A using tyramine/benzylamine as substrate measured after 30 mins by fluorometric assay
# T2 sequence (P21397 whole entry): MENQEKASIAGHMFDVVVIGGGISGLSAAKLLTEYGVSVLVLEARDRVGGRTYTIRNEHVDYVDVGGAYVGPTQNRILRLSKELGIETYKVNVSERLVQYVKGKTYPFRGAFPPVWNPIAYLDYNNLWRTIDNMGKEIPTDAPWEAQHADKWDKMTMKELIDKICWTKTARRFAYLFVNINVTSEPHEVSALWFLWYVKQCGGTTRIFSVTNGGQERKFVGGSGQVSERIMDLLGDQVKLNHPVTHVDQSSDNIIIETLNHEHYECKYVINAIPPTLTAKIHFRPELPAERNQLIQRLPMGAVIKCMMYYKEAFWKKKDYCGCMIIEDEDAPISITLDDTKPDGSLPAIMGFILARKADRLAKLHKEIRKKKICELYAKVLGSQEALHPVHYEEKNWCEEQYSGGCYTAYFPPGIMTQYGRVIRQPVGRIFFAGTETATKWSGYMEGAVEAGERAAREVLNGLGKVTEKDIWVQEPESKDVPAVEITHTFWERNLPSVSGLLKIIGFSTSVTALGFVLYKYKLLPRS
# [11] = biological target: T3, Prostaglandin G/H synthase 2 (Homo sapiens, UniProt P35354); assay: Inhibition of human COX2 by EIA method
# T3 sequence (P35354 whole entry): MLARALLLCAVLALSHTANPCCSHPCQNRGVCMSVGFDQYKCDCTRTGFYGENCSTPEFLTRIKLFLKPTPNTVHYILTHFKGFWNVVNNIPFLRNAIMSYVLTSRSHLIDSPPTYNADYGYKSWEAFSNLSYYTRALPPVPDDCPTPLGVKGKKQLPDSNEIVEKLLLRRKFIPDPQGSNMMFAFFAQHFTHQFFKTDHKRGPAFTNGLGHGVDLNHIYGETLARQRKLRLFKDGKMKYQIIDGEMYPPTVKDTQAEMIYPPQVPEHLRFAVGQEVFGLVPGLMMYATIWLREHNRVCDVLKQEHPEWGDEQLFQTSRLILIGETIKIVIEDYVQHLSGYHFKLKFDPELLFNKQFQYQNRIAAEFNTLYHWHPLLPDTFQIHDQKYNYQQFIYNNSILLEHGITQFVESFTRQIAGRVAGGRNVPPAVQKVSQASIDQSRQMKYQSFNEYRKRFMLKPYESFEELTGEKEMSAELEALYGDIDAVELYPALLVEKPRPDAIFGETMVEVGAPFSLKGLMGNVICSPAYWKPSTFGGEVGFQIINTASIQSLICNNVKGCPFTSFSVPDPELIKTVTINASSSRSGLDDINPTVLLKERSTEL
# [12] = biological target: T1, Amine oxidase [flavin-containing] B; assay: Inhibition of human MAO-B using tyramine/benzylamine as substrate measured after 30 mins by fluorometric assay
# [13] = biological target: T3, Prostaglandin G/H synthase 2
# Description: Inhibition of COX-2 (unknown origin) using arachidonic acid as substrate and in presence of TMPD preincubated for 5 mins followed by substrate addition and measured after 5 mins by UV visible spectrophotometric analysis
# [14] = biological target: T4, Polyunsaturated fatty acid 5-lipoxygenase (Homo sapiens, UniProt P09917); assay: Inhibition of 5-LOX (unknown origin) using linoleic acid as substrate incubated for 5 mins followed by substrate addition
# T4 sequence (P09917 whole entry): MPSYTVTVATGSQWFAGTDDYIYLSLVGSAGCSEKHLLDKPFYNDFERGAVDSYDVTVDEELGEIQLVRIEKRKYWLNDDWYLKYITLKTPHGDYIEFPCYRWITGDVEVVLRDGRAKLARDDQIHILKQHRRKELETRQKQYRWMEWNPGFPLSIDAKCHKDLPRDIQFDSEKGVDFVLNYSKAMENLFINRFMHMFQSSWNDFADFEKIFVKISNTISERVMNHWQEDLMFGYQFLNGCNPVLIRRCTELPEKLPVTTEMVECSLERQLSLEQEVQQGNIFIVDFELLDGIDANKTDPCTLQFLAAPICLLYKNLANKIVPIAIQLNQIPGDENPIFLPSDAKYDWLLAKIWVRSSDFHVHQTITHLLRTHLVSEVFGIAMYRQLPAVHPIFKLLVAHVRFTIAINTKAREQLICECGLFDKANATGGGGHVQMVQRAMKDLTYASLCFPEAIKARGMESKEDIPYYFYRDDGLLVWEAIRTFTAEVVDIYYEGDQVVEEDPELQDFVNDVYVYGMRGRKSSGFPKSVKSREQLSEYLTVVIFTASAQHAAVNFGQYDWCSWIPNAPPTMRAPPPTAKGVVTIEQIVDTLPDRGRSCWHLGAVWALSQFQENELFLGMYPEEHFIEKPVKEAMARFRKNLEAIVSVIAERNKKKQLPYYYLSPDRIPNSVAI
# Chain of Prostaglandin G/H synthase 1 (P23219 whole entry): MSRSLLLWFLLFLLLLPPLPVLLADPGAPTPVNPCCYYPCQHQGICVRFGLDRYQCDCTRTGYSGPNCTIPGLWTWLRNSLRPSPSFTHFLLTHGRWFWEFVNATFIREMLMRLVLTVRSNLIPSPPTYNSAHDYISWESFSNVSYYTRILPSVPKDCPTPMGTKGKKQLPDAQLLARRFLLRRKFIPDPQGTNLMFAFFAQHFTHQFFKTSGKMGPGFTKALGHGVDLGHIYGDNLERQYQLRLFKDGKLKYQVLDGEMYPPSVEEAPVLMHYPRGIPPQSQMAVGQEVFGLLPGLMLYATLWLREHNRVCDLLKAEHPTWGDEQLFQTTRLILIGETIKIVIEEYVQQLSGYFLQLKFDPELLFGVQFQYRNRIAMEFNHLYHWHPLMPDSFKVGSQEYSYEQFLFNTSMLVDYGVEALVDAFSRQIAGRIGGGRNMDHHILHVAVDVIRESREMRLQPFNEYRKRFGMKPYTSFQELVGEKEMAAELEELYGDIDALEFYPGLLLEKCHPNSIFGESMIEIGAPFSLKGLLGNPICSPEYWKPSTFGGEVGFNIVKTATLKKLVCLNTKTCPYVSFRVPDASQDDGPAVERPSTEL
# Chain of Acetylcholinesterase (Electrophorus electricus, UniProt O42275) (O42275 whole entry): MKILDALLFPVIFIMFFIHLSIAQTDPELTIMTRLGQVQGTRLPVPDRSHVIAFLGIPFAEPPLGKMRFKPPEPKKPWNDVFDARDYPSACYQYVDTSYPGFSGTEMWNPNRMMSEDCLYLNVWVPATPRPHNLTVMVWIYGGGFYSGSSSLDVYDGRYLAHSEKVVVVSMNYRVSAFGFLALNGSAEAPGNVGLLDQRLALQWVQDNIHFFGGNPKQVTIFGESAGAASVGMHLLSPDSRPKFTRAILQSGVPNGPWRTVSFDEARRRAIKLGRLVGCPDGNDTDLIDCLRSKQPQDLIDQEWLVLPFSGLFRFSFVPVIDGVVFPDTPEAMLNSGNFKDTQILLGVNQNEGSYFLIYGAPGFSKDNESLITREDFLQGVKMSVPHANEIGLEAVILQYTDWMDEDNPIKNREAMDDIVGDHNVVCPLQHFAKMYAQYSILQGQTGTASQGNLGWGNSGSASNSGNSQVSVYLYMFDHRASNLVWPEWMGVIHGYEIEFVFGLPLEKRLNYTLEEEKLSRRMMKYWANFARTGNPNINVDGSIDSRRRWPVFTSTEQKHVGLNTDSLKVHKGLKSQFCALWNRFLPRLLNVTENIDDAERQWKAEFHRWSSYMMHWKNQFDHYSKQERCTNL
smiles,measurement,setting,value
O=C(CN1C(=O)S/C(=C\c2ccc(O)cc2)C1=O)Nc1nccs1,IC50,[1]; read-out: IC50,51.8 µM
same,IC50,Acetylcholinesterase [2]; read-out: IC50,9.03 µM
O=C(CCN1CCCC1)Nc1nc2ccc(Br)cc2s1,IC50,Cholinesterase [3],12 µM
same,inhibition at 100 µM,[4],66%
O=C1S/C(=C\c2ccccc2)C(=O)N1c1csc(Nc2ccccc2)n1,IC50,[1]; read-out: IC50,29.3 µM
same,IC50,Acetylcholinesterase [2]; read-out: IC50,0.29 µM
same,IC50,Cholinesterase [5],7.18 µM
same,IC50,Beta-secretase 1; read-out: IC50,10.2 µM
CCn1cc(C(=O)O)c(=O)c2cc(F)c(N3CCNC(C)C3)c(F)c21 (stereo not given) [LOMEFLOXACIN],Papp at 20 h,in vitro,1.13 ×10⁻⁶ cm/s
O=C1S/C(=C\c2ccc(-c3ccccc3)cc2)C(=O)N1CNc1nc(-c2ccccc2)cs1,IC50,Acetylcholinesterase [2]; read-out: IC50,0.063 µM
same,IC50,Beta-secretase 1,Not_active
same,Activity,[6],Non-toxic
same,logP,[7],6.78
same,Papp at 20 h,in vitro,14.2 ×10⁻⁶ cm/s
O=C(CN1C(=O)S/C(=C\c2c[nH]c3ccccc23)C1=O)Nc1nccs1,IC50,Acetylcholinesterase [2]; read-out: IC50,0.16 µM
same,IC50,Beta-secretase 1; read-out: IC50,1.18 µM
C/C=C1\SC(=O)N(CNc2nc(-c3cc(Cl)cs3)c(Nc3ccc(S(N)(=O)=O)cc3)s2)C1=O,IC50,[1],Not_active
same,IC50,Acetylcholinesterase [2],Not_active
same,IC50,Cholinesterase [5],0.11 µM
same,IC50,Beta-secretase 1; read-out: IC50,0.51 µM
same,Activity,[6],Non-toxic
same,logP,[7],4.86
same,Papp at 20 h,in vitro,9.1 ×10⁻⁶ cm/s
O=C(/C=C/c1ccc(-c2ccccc2)cc1)Nc1nc2ccc(O)cc2s1,IC50,Acetylcholinesterase [8],0.071 µM
same,IC50,[9],0.037 µM
Cc1ccc2sc(NC(=O)CCN3CCCC3)nc2c1,IC50,Cholinesterase [3],15 µM
same,inhibition at 100 µM,[4],60%
O=C(CN1C(=O)S/C(=C\c2c[nH]c3ccccc23)C1=O)Nc1nc2ccccc2s1,IC50,[1]; read-out: IC50,42.5 µM
same,IC50,Acetylcholinesterase [2]; read-out: IC50,0.45 µM
same,IC50,Beta-secretase 1; read-out: IC50,0.91 µM
O=C(CN1C(=O)S/C(=C\c2ccc(O)cc2)C1=O)Nc1nc2ccccc2s1,IC50,Acetylcholinesterase [2]; read-out: IC50,2.76 µM
same,IC50,[10],Not_active
CS(=O)(=O)c1ccc(-n2cc(/C=C3/SC(=O)NC3=O)c(-c3ccccc3)n2)cc1,IC50,[11],0.48 µM
O=C1S/C(=C\c2ccccc2)C(=O)N1CNc1nc(-c2cc(Cl)cs2)c(Nc2ccccc2)s1,IC50,[1],Not_active
same,IC50,Acetylcholinesterase [2],Not_active
same,IC50,Cholinesterase [5],0.23 µM
same,IC50,Beta-secretase 1; read-out: IC50,0.49 µM
O=C(/C=C/c1ccccc1)Nc1ccc2sc(NCN3C(=O)CSC3=O)nc2c1,IC50,Acetylcholinesterase [2]; read-out: IC50,9.07 µM
same,IC50,[10]; read-out: IC50,65.4 µM
same,IC50,[12],14.7 µM
same,IC50,Beta-secretase 1,Not_active
same,IC50,[13],0.107 µM
same,IC50,[14],0.21 µM
O=C1S/C(=C\c2ccc(O)cc2)C(=O)N1CNc1nc2ccccc2s1,IC50,Acetylcholinesterase [2]; read-out: IC50,5.98 µM
Cc1nnc2n1-c1ccc(Cl)cc1C(c1ccccc1)=NC2 [ALPRAZOLAM],Papp at 20 h,in vitro,5.59 ×10⁻⁶ cm/s
COc1ccc(C2CC(c3ccc(O)cc3)=NN2c2nc3ccc(C)cc3s2)cc1OC (stereo not given),IC50,Acetylcholinesterase [8],8.69 µM
O=C1S/C(=C\c2c[nH]c3ccccc23)C(=O)N1CNc1nc(-c2ccccc2)cs1,IC50,Acetylcholinesterase [2]; read-out: IC50,0.052 µM
same,IC50,Beta-secretase 1; read-out: IC50,0.76 µM
same,Activity,[6],Non-toxic
same,logP,[7],4.65
same,Papp at 20 h,in vitro,10.7 ×10⁻⁶ cm/s
O=C1S/C(=C\c2c[nH]c3ccccc23)C(=O)N1c1csc(Nc2ccccc2)n1,IC50,[1]; read-out: IC50,33.4 µM
same,IC50,Acetylcholinesterase [2]; read-out: IC50,0.69 µM
same,IC50,Cholinesterase [5],17.4 µM
same,IC50,Beta-secretase 1; read-out: IC50,19.2 µM

# Source: ChEMBL document CHEMBL6103588, “Promising thiazolidinedione-thiazole based multi-target and neuroprotective hybrids for Alzheimer's disease: Design, synthesis, in-vitro, in-vivo and in-silico studies” (Eur J Med Chem, 2025)
